Experiment [1] concerns Zea mays (ZEAMX). The experiment is described as follows: Cold stress test on crop plants, spray application in greenhouse, visual damage rating. It is filed as in vivo. As to conditions: mean of three results. The protocol:
Seeds of monocotyledonous and dicotyledonous crop plants were placed in sandy loam in wood-fiber pots, covered with soil and cultivated in a greenhouse under good growth conditions. The test plants were treated at the early leaf stage (BBCH10-BBCH13). To ensure uniform water supply before commencement of stress, the potted plants were supplied with the maximum amount of water immediately beforehand by dam irrigation and, after application, transferred in plastic inserts in order to prevent subsequent, excessively rapid drying. The inventive compounds, formulated in the form of wettable powders (WP), wettable granules (WG), suspension concentrates (SC) or emulsion concentrates (EC), were sprayed onto the green parts of the plants as an aqueous suspension at an equivalent water application rate of 600 l/ha with addition of 0.2% wetting agent (agrotin). Substance application was followed immediately by stress treatment of the plants (cold or drought stress). For cold stress treatment, the plants were kept under the following controlled conditions: “day”: 12 hours with illumination at 8° C. “night”: 12 hours without illumination at 1° C. The duration of the respective stress phases was guided mainly by the state of the untreated, stressed control plants and thus varies from crop to crop. It was ended (by re-irrigating or transfer to a greenhouse with good growth conditions) as soon as irreversible damage is observed on the untreated, stressed control plants. In the case of dicotyledonous crops, for example oilseed rape and soya, the duration of the drought stress phase was between 3 and 5 days, in the case of monocotyledonous crops, for example wheat, barley or corn, between 6 and 10 days. The duration of the cold stress phase varied between 12 and 14 days. The end of the stress phase was followed by an approx. 5-7-day recovery phase, during which the plants were once again kept under good growth conditions in a greenhouse. […] The intensity of damage was first assessed as a percentage (100%=plants have died, 0%=like control plants). […]

Experiment [2] relates to Zea mays (ZEAMX). The experiment is described as follows: Drought stress test on crop plants, spray application in greenhouse, visual damage rating. It is filed as in vivo. As to conditions: 25 g/ha, mean of three results. The protocol: Seeds of monocotyledonous and dicotyledonous crop plants were placed in sandy loam in wood-fiber pots, covered with soil and cultivated in a greenhouse under good growth conditions. The test plants were treated at the early leaf stage (BBCH10-BBCH13). To ensure uniform water supply before commencement of stress, the potted plants were supplied with the maximum amount of water immediately beforehand by dam irrigation and, after application, transferred in plastic inserts in order to prevent subsequent, excessively rapid drying. The inventive compounds, formulated in the form of wettable powders (WP), wettable granules (WG), suspension concentrates (SC) or emulsion concentrates (EC), were sprayed onto the green parts of the plants as an aqueous suspension at an equivalent water application rate of 600 l/ha with addition of 0.2% wetting agent (agrotin). Substance application was followed immediately by stress treatment of the plants (cold or drought stress). For cold stress treatment, the plants were kept under the following controlled conditions: Drought stress was induced by gradual drying out under the following conditions: “day”: 14 hours with illumination at 26° C. “night”: 10 hours without illumination at 18° C. The duration of the respective stress phases was guided mainly by the state of the untreated, stressed control plants and thus varies from crop to crop. It was ended (by re-irrigating or transfer to a greenhouse with good growth conditions) as soon as irreversible damage is observed on the untreated, stressed control plants. In the case of dicotyledonous crops, for example oilseed rape and soya, the duration of the drought stress phase was between 3 and 5 days, in the case of monocotyledonous crops, for example wheat, barley or corn, between 6 and 10 days. The duration of the cold stress phase varied between 12 and 14 days. The end of the stress phase was followed by an approx. 5-7-day recovery phase, during which the plants were once again kept under good growth conditions in a greenhouse. In order to rule out any influence of the effects observed by any fungicidal action of the test compounds, it was additionally ensured that the tests proceed without fungal infection and without infection pressure. After the recovery phase had ended, the intensities of damage were rated visually compared to untreated, unstressed controls of the same age (in the case of drought stress) or the same growth stage (in the case of cold stress). The intensity of damage was first assessed as a percentage (100%=plants have died, 0%=like control plants). These values were then used to calculate the efficacy of the test compounds (=percentage reduction in the intensity of damage as a result of substance application) by the following formula: [formula] EF: efficacy (%) DVus: damage value of the untreated, stressed control DVts: damage value of the plants treated with test compound The tables below list mean values in each case from three results of the same test. Effects of selected compounds of the formula (I) under drought stress: ZEAMX=Zea mays

With `NC(=O)c1cccc2[nH]c(C(F)(F)C(F)(F)F)nc12` [1-2, 2-(pentafluoroethyl)-1H-benzimidazole-4-carboxamide], the “EF (ZEAMX), efficacy = percentage reduction in the intensity of damage” value in the experiment with Zea mays (ZEAMX) [1] (5 g/ha) and with Zea mays (ZEAMX) [2] was over 5% throughout.
In the case of `NC(=O)c1cccc2[nH]c(C(F)(F)C(F)(F)C(F)(F)F)nc12` [1-17], the “EF (ZEAMX), efficacy = percentage reduction in the intensity of damage” value in the experiment on Zea mays (ZEAMX) [1] (25 g/ha) and in the experiment with Zea mays (ZEAMX) [2] was over 5% in each case.

For the origin of these results see patent US20110218103A1, “Fluoroalkyl-substituted 2-amidobenzimidazoles” (BAYER CROPSCIENCE AG, priority 2010, published 2011).
